This note sets out measurements from patent US20240158446A1, “CYCLIC COMPOUND HAVING SELECTIVE INHIBITORY ACTION ON KRAS OVER HRAS AND NRAS” (CHUGAI SEIYAKU KABUSHIKI KAISHA, priority 2021, published 2024).

Experiment [1] addresses GDP-bound KRAS wild-type protein (Homo sapiens, UniProt P01116). The experiment can be described thus: Binding to KRAS by surface plasmon resonance (SPR), Single Cycle Kinetics. The settings on record: GDP-bound KRAS wild-type protein, read-out: KRAS KD. On the technique in general: In SPR one partner is held on a chip, and binding of the other changes the refractive index at the surface.

Experiment [2] has as its target GDP-bound NRAS wild-type protein (Homo sapiens, UniProt P01111). As to the kind of experiment: Binding to NRAS by surface plasmon resonance (SPR), Single Cycle Kinetics. The note with it: SPR, GDP-bound NRAS wild-type protein vs GDP-bound KRAS wild-type protein.
Experiment [3] has as its target GDP-bound HRAS wild-type protein (Homo sapiens, UniProt P01112). The experiment can be described thus: Binding to HRAS by surface plasmon resonance (SPR), Single Cycle Kinetics. The settings on record: SPR, GDP-bound HRAS wild-type protein vs GDP-bound KRAS wild-type protein.
Where [4] appears, read: SPR Single Cycle Kinetics, 1:1 binding model.

pKd: −log10 of the molar value. Where two headings read alike, the source gives them in different places. *1 amine or outer side, *2 acyl side, *3 side chain or, on linkers, in order; H or OH if unused. Where a SMILES comes first, the peptide text is derived from it. Bridges are numbered along the chain shown (N, C = ends). [ ]: non-standard residue; d: D form. The star is where a group is joined. hPhe(3-Cl-4-CF3) = N[C@@H](CCc1ccc(C(F)(F)F)c(Cl)c1)C(=O)O; X32 = COCCN([C@@H](Cc1ccc(C(F)(F)F)cc1)C(=O)[*:2])[*:1]; NPrPhe(4-CF3) = CCCN[C@@H](Cc1ccc(C(F)(F)F)cc1)C(=O)O; NMeGly(cPent) = CN[C@H](C(=O)O)C1CCCC1; NMeD = CN[C@@H](CC(=O)O)C(=O)O; NMeL = CN[C@@H](CC(C)C)C(=O)O; Morpholide = C1CN(*)CCO1; NMeA = CN[C@@H](C)C(=O)O; Ac5c = NC1(C(=O)O)CCCC1; Aze = O=C(O)[C@@H]1CCN1; Sar = CNCC(=O)O

Sequence of GDP-bound HRAS wild-type protein (P01112 whole entry): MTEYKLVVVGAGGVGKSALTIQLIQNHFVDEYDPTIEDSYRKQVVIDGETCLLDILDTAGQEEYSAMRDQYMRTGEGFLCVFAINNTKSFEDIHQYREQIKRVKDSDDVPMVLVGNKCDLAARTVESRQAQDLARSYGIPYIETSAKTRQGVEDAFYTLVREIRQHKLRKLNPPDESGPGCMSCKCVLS
Sequence of GDP-bound KRAS wild-type protein (P01116 whole entry): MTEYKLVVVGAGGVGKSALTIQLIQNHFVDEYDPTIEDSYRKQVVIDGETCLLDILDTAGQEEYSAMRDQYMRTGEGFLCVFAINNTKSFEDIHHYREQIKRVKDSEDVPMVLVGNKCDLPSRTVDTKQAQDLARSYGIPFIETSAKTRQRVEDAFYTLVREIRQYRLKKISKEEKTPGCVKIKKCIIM
Sequence of GDP-bound NRAS wild-type protein (P01111 whole entry): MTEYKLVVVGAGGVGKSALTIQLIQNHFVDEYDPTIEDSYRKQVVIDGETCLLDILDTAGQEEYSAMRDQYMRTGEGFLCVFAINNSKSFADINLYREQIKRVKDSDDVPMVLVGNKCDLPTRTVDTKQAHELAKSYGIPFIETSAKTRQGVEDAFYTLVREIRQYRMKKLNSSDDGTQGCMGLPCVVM

In the case of `CCCN1C(=O)CN(C)C(=O)[C@@H]2CCN2C(=O)[C@H]([C@@H](C)CC)NC(=O)[C@H](CC(C)C)N(C)C(=O)C[C@@H](C(=O)N2CCOCC2)NC(=O)[C@H](C2CCCC2)N(C)C(=O)C2(CCCC2)NC(=O)[C@@H]2CCCN2C(=O)[C@H](CCc2ccc(C(F)(F)F)c(Cl)c2)NC(=O)CN(C)C(=O)[C@@H]1Cc1ccc(C(F)(F)F)cc1` [PP0337] ([NMeL]I[Aze][Sar][NPrPhe(4-CF3)][Sar][hPhe(3-Cl-4-CF3)]P[Ac5c][NMeGly(cPent)]D-Morpholide; lactam N-11), the pKd in experiment [1] (setting [4]) is 8.60. Besides, in experiment [2], the “NRAS/KRAS (ratio of KD value for NRAS to KD value for KRAS)” value is “B (a compound having 3 or more and less than 10 is denoted as B)”. The “HRAS/KRAS (ratio of KD value for HRAS to KD value for KRAS)” value in experiment [3] was “B (a compound having 3 or more and less than 10 is denoted as B)”.
Consider `CCO[C@@H]1C[C@H]2C(=O)NC3(CC(C)(C)C3)C(=O)N(C)[C@@H](C3CCCC3)C(=O)N(C)[C@H](C(=O)N(C)C)CC(=O)N(C)[C@@H](CC)C(=O)N[C@@H]([C@@H](C)CC)C(=O)N(C)CC(=O)N(C)[C@H]3C/C=C\CCN(C3=O)[C@@H](Cc3ccc(C(F)F)cc3)C(=O)N(C)CC(=O)N[C@@H](CCc3cc(F)c(C(F)(F)F)c(F)c3)C(=O)N2C1` [PP2049], for which the pKd in experiment [1] (SPR, Single Cycle Kinetics) was 10.40. For the same molecule, the “NRAS/KRAS (ratio of KD value for NRAS to KD value for KRAS)” value in experiment [2] was “A (a compound having 10 or more and less than 20 is denoted as A)”. The “HRAS/KRAS (ratio of KD value for HRAS to KD value for KRAS)” value in experiment [3] is “B (a compound having 3 or more and less than 10 is denoted as B)”.
With `CC[C@H](C)[C@@H]1NC(=O)[C@H](CC(C)C)N(C)C(=O)C[C@@H](C(=O)N2CCOCC2)N(C)C(=O)[C@H](C2CCCC2)N(C)C(=O)C2(CCCC2)NC(=O)[C@@H]2CCCN2C(=O)[C@H](CCc2ccc(C(F)(F)F)c(Cl)c2)NC(=O)CN(C)C(=O)[C@H](Cc2ccc(C(F)(F)F)cc2)N2CCCC[C@@H](C2=O)N(C)C(=O)CN(C)C1=O` [PP0318], the pKd in experiment [1] (setting [4]) is 10.47. In addition, in experiment [2], the “NRAS/KRAS (ratio of KD value for NRAS to KD value for KRAS)” value was “B (a compound having 3 or more and less than 10 is denoted as B)”. In experiment [3], the “HRAS/KRAS (ratio of KD value for HRAS to KD value for KRAS)” value is “B (a compound having 3 or more and less than 10 is denoted as B)”.
With `CCO[C@@H]1CCN2C(=O)[C@H](CCc3cc(F)c(C(F)(F)F)c(F)c3)NC(=O)CN(C)C(=O)[C@H](Cc3ccc(C(F)(F)F)cc3)N3CCCC[C@@H](C3=O)N(C)C(=O)CN(C)C(=O)[C@H]([C@@H](C)CC)NC(=O)[C@H](CC(C)C)N(C)C(=O)C[C@@H](C(=O)N3CCOCC3)N(C)C(=O)[C@H](C3CCCC3)N(C)C(=O)C3(CCC3)NC(=O)[C@H]12` [PP1079], the negative logarithm of the Kd (pKd) in experiment [1] (SPR, Single Cycle Kinetics) was 9.64. Further, in experiment [2], the “NRAS/KRAS (ratio of KD value for NRAS to KD value for KRAS)” value is “B (a compound having 3 or more and less than 10 is denoted as B)”. Also, the “HRAS/KRAS (ratio of KD value for HRAS to KD value for KRAS)” value in experiment [3] was “B (a compound having 3 or more and less than 10 is denoted as B)”.
For the molecule `CC[C@H](C)[C@@H]1NC(=O)[C@H](CC(C)C)N(C)C(=O)C[C@@H](C(=O)N2CCOCC2)N(C)C(=O)[C@H](C2CCCC2)N(C)C(=O)C2(CCCC2)NC(=O)[C@@H]2CCCN2C(=O)[C@H](CCc2ccc(C(F)(F)F)c(Cl)c2)NC(=O)CN(C)C(=O)[C@H](Cc2ccc(C(F)(F)F)cc2)N(CCOC)C(=O)[C@@H]2CCN2C(=O)[C@H](C)N(C)C1=O` [PP0118] ([NMeL]I[NMeA][Aze][X32][Sar][hPhe(3-Cl-4-CF3)]P[Ac5c][NMeGly(cPent)][NMeD]-Morpholide; lactam N-11), in experiment [1] (setting [4]), the pKd was 9.68. Besides, in experiment [2], the “NRAS/KRAS (ratio of KD value for NRAS to KD value for KRAS)” value was “C (A compound having a KD ratio of 0.1 or more and less than 3 is denoted as C)”. In addition, the “HRAS/KRAS (ratio of KD value for HRAS to KD value for KRAS)” value in experiment [3] is “C (A compound having a KD ratio of 0.1 or more and less than 3 is denoted as C)”.

For orientation: pKd means −log10 of the Kd, conventionally taken in molar units.
